PMC10661964 (Current Drug Metabolism, 2023)
“And” between values parts separate entries of the source, which are not always exact repeats. Identical values can stand only once. Like-named read-outs stand apart in the source and are kept apart here. Marks after values point to notes of the source that are not given here.

What was measured:
[1] = Plasma PK of total radioactivity, [14C]-nifurtimox and metabolites after oral dosing (HPLC-LSC); type: in vivo; details: male Wistar rats; for half-life / Tmax: rat; for half-life: read-out: t½ (converted)
Procedure: Animals were housed in suitable metabolism cages. […] Blood cells and plasma were separated by centrifugation. Plasma was stored at ≤-15°C prior to analysis. […] All biological samples were weighed immediately. […] The remaining carcass was also wet-weighed.
Aliquots of individual plasma samples were pooled separately for each timepoint by equal volume. For protein precipitation, pooled plasma was treated with a three-fold volume of acetonitrile. Samples were homogenized and precipitated by centrifugation (20,000 g, 5 min). Samples were concentrated and analyzed using high-performance liquid chromatography (HPLC) with off-line radioactivity detection by LSC (HPLC-LSC).

[2] = system: human CYP enzymes; assay: CYP induction, all isoforms tested (summary); type: in vitro ADME
Excerpt: (§1) The inhibition of cytochrome P450 (CYP) isoforms and a range of cellular transporters (except multidrug and toxin extrusion [MATE] proteins), as well as the induction of CYP isoforms were investigated using previously described methods.

[3] = system: CYP 1A2; assay: CYP induction (mRNA and CYP activity); type: in vitro ADME, human
Excerpt: as §1

[4] = system: CYP 2B6; assay: CYP induction (mRNA and CYP activity); type: in vitro ADME, human
Excerpt: as §1

[5] = system: CYP 3A4; assay: CYP induction (mRNA and CYP activity); type: in vitro ADME, human
Excerpt: as §1

[6] = Mass balance and metabolite profiling in excreta after oral [14C]-nifurtimox in intact rats; details: for component excreted in urine, oral dosing: intact male Wistar rats, 2.5 mg/kg oral; for component excreted in urine, oral dosing / radioactivity excreted in urine / radioactivity excreted in feces: up to 120 h
Procedure: After an adaption period, the animals were prepared for the study. Bile duct cannulation was performed on selected animals the day before their use in experiments.
In a mass balance study (n = 5) and a PK study (n = 2 per timepoint), 2.5 mg/kg b.w. […] For i.v. administration, 2.5 mg/kg b.w. […] In an additional stability study, male Wistar rats (n = 3 per timepoint) were administered 2.5 mg/kg b.w. […] The total radioactivity concentration in the dosage form was confirmed by liquid scintillation counting (LSC).
Animals were housed in suitable metabolism cages. Blood was collected from separate rats at 0.25, 0.5, 1, 1.5, 2, 3, 5, and 8 h post-dose and stored in lithium heparinized tubes. Blood cells and plasma were separated by centrifugation. Plasma was stored at ≤-15°C prior to analysis. […] At the end of the study, the cages were rinsed with water, and samples were collected. All biological samples were weighed immediately. Feces samples were homogenized with water to obtain a uniform radioactivity distribution. All samples were stored deep-frozen at ≤-15/-70°C before further processing. During the necropsy, selected organs and tissues were collected and wet-weighed. The remaining carcass was also wet-weighed. The carcass and all tissues were homogenized and stored at room temperature prior to processing for analysis. In the stability study, blood and urine were collected at 0.25 and 0.5 h post-dose. Plasma and urine were immediately frozen in liquid nitrogen and stored at -80°C to prevent degradation. The total radioactivity in samples and tissues was determined by LSC after appropriate sample preparation.
Aliquots of individual urine or bile samples were pooled separately for each time interval by equal volume and analyzed using HPLC-LSC. Aliquots of individual feces samples were pooled separately for each time interval, ensuring that each aliquot contained the same amount of radioactivity. The pooled samples were extracted twice with a mixture of acetonitrile/water (80:20 v/v, 2 x 0.5 mL). The resulting suspensions were centrifuged (20,000 g, 5 min), and the supernatants were then combined for each time interval, concentrated, and subjected to HPLC-LSC.
The amount of total radioactivity in urine, feces, bile, and tissues was determined by multiplying the volume or weight of the samples by the respective total radioactivity concentration. The amount of radioactivity recovered in the excreta (AE), cage wash, and tissues was compared with the administered radioactive dose to establish the radioactive balance. Cumulative excretion was calculated as the sum of the excretion for each collection interval. Arithmetic means and coefficients of variation (CV) were calculated for these percentages. During metabolite profiling, the concentration or amount of each analyte for each sample and timepoint or interval was calculated by multiplying the total radioactivity concentration or amount excreted of each sample with the percent area of each analyte obtained after HPLC-LSC separation.

[7] = target: T1, MATE2K (Homo sapiens, UniProt Q86VL8); assay: MATE2K transport assay in overexpressing HEK293 cells; type: in vitro ADME; details: probe substrate metformin 90 µM
T1 construct: expressed in transfected cells; host or cells: HEK293, stably transfected
T1 sequence (Q86VL8 1-566 isoform Q86VL8-3): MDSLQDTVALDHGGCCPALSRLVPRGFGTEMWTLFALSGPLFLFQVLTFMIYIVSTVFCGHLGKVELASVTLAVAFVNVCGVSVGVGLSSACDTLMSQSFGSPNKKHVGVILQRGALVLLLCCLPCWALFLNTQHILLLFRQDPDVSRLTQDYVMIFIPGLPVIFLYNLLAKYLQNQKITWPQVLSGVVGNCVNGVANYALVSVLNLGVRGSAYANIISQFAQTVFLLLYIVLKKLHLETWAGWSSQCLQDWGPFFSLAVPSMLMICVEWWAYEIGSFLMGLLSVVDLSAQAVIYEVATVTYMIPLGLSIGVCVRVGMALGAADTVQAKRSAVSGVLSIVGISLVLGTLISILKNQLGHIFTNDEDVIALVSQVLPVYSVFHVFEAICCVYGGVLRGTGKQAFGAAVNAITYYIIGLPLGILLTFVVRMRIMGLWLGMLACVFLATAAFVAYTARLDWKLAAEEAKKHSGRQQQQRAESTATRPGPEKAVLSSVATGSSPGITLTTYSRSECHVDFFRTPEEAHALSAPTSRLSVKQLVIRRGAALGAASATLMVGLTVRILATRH
Procedure: as §1
Supplementary Material Current Drug Metabolism, 2023, Vol. 24, No. 8 iii […]
-, not determined; BCRP, breast cancer resistance protein; P-gp, P-glycoprotein; MATE, multidrug and toxin extrusion. aThe highest test concentration of 20 µM was not valid in this assay for technical reasons.
OAT, organic anion transporter; OATP, organic anion transporting polypeptide; OCT, organic cation transporters.
After thawing from frozen storage, aliquots of approximately 3 x 10^6 cells of human embryonic kidney (HEK293) cell line stable overex-pressing MATE1 or MATE2K were transferred to cell culture dishes containing 10 mL of DMEM-medium (supplemented with 10% FBS, 1% penicillin [10.000 U/mL]/streptomycin [10 mg/mL] and hygromycin B [150 µg/mL]) at 37°C. Transporter-transfected and vector-transfected HEK cells were grown on cell culture dishes at 37°C in a humidified 5% CO 2 atmosphere. All cell lines were confirmed free from mycoplasma by routine testing with conventional PCR. Cell cultures were split when they had grown to confluency. For passaging, cells were washed with PBS, exposed to trypsin-EDTA for 5 min at room temperature, collected by centrifugation, resuspended in culture medium and […]
MATE1 and MATE2K Transport Assays
Transporter-transfected and vector-transfected cells were prepared for use in uptake assays by harvesting and plating into 24-well-plates pre-coated with poly-D-lysine hydrobromide at a density of 2 x 10^5 cells/well and then cultured for 3 days in DMEM growth medium (high glucose, 10% FBS, 1% penicillin/streptomycin). For uptake assays, the growth medium was aspirated and each plate well was rinsed twice with HBSS supplemented with 20 mM HEPES, pH 7.4. The intracellular environment was acidified by preincubation in 30 mM NH4Cl in buffer pH 7.4 at 37°C for 30 min. […]

[8] = Unbound fraction (fu) in human plasma; type: in vitro ADME
[9] = Quantification of nifurtimox and metabolites in rat plasma after a single high dose (200 mg/kg); type: in vivo, Wistar rats; details: for AUC(0-t) / AUC / Cmax / Tmax / half-life: Wistar, rat, plasma, po, 200 mg/kg; for ratio of rat:human AUC(0-24): rat 200 mg/kg oral vs human 120 mg oral
Procedure: Blood cells and plasma were then separated by centrifugation, and the plasma was stored at ≤-15°C until required. For analysis, plasma samples were thawed at room temperature and homogenized by vortex mixing. Plasma samples were pooled separately for male and female rats by combining 25 µL from each of the 4 animals for each timepoint. […] To each pooled plasma (100 µL), calibration, or control sample, 300 µL of an internal standard solution containing [^2H8]-nifurtimox (500 ng/mL) and [^2H3]-M-6 (2500 ng/mL) in acetonitrile + 0.5% formic acid in water (v/v) was added and mixed thoroughly. All samples were then centrifuged (20,000 g, 5 min) to precipitate the protein. The supernatant was analyzed using a 1290 Infinity LC system equipped with a diode array detector and an Orbitrap Q-Exactive Plus HRMS (Thermo Fisher Scientific, Bremen, Germany) with a heated electrospray ionization source. […] The mobile phase gradient was: 0 min, 0% B; 2.5 min, 0% B; 3 min, 20% B; 8 min, 45% B; 9 min, 90% B; 10.1 min, 90% B; 12 min, 0% B; 13 min, 0% B. The following HRMS parameters were used: mass range, 120-200 Da (0-2.5 min) and 230-600 Da (2.5-13 min) in full scan mode; resolution, 280,000; ion source voltage, 3500 V; capillary temperature, 300°C; source temperature, 60°C.
The calibration was based on the relative peak area as a function of concentration obtained by linear regression. […] Thus, all concentrations in μg/mL were back-calculated to nmol/mL. The PK parameters for each analyte were calculated using ToxKin software, as described above.

[10] = single oral 2.5 mg/kg [14C]-nifurtimox, pooled plasma
[11] = female, read-out: AUC(0–24), female animals
[12] = female, read-out: AUC, female animals
[13] = female, read-out: Cmax, female animals
[14] = female, read-out: tmax, female animals
[15] = female, read-out: t½, female animals (converted)
[16] = male, read-out: AUC(0–24), male animals
[17] = male, read-out: AUC, male animals
[18] = male, read-out: Cmax, male animals
[19] = male, read-out: tmax, male animals
[20] = male, read-out: t½, male animals (converted)
[21] = total radioactivity, oral 2.5 mg/kg, intact rats
[22] = total radioactivity, oral 2.5 mg/kg, intact rats, listed as [^14C]-nifurtimox, 2.5 mg/kg

SMILES	AUC [1, 10]	AUC(0-tn) [1, 10]	Cmax [1, 10]	tn (time of last quantifiable concentration) [1, 10]	concentration up to which induction of CYP mRNA or activity was absent [2]	concentration up to which no induction (mRNA and CYP activity) [3]	concentration up to which no induction (mRNA and CYP activity) [4]	concentration up to which no induction (mRNA and CYP activity) [5]	IC50 [7]	fraction unbound [8]	AUC(0-t) [9, 11]	AUC [9, 12]	Cmax [9, 13]	Tmax [9, 14]	half-life [9, 15]	AUC(0-t) [9, 16]	AUC [9, 17]	Cmax [9, 18]	Tmax [9, 19]	half-life [9, 20]	other results
CC1CS(=O)(=O)CCN1n1cc(SCC(N)C(=O)O)ccc1=O (stereo not drawn) [M-4]	791 µg-eq*h/L	107 µg-eq*h/L	48.3 µg-eq/L	3 h	≤ 80 µg/mL	up to 80000 µg/L	up to 80000 µg/L	up to 80000 µg/L	> 5 µM	1	4.84 µM·h	7.41 µM·h	0.568 µM	3 h	18.6 h	4.78 µM·h	9.77 µM·h	0.338 µM	2 h	18.3 h	%AUC(0-8) (relative to total radioactivity AUC(0-8)) ([1]; oral 2.5 mg/kg, M-2+M-3, M-4, M-5 are estimates based on AUC(0-tn), 2.5 mg/kg): 2.42^c %; half-life ([1]; single oral 2.5 mg/kg [14C]-nifurtimox, plasma, interval up to 8 h): 12.3 h; Tmax [1, 10]: 0.5 h; component excreted in urine, oral dosing [6]: no M-4 was detected; ratio of rat:human AUC(0-24) [9]: 2.0-2.1 fold
CC1CS(=O)(=O)CCN1N (stereo not drawn) [M-6]					≤ 90 µg/mL	up to 90000 µg/L	up to 90000 µg/L	up to 90000 µg/L	> 30 µM	1	65.8 µM·h	96.1 µM·h	3.92 µM	3 h	13.5 h	78.4 µM·h	148 µM·h	3.65 µM	24 h	10.6 h	ratio of rat:human AUC(0-24) [9]: 2.4-2.8 fold
CC1CS(=O)(=O)CCN1/N=C/c1ccc([N+](=O)[O-])o1 (stereo not drawn) [Nifurtimox, (E)-N-(3-methyl-1,1-dioxo-1,4-thiazinan-4-yl)-1-(5-nitrofuran-2-yl) methanimine, reference compound]	1730 µg-eq*h/L	1570 µg-eq*h/L	755 µg-eq/L	5 h	up to 30 mg/L	up to 30000 µg/L	up to 30000 µg/L	up to 30000 µg/L	> 20 µM	0.576	117 µM·h	121 µM·h	18.3 µM	1 h	5 h	138 µM·h	184 µM·h	10.1 µM	2 h	5 h	t½ ([1]; single oral 2.5 mg/kg [14C]-nifurtimox, plasma, interval up to 8 h, 2.5 mg/kg): 1.44 h; AUC(0-8) [1, 10]: 1680 µg-eq*h/L; half-life ([1]; male, Wistar, plasma, po, 2.5 mg/kg, single oral 2.5 mg/kg [14C]-nifurtimox, plasma, interval up to 8 h): 1.4 h; Tmax [1, 10]: 0.5 h; tmax of radioactivity ([1]; total radioactivity, oral 2.5 mg/kg): 0.5 h; component excreted in urine, oral dosing ([6]; 2.5 mg/kg): 0.117 % of the administered dose; component excreted in urine, oral dosing ([6]; listed as [^14C]-nifurtimox, 2.5 mg/kg): 0.1 % of the administered dose; component excreted in urine, oral dosing ([6]; listed as nifurtimox, 2.5 mg/kg): < 1 % of the administered dose; share of sample radioactivity in urine ([6]; pooled urine 0-8 h post-dose, oral 2.5 mg/kg): 0.3 % of sample radioactivity; total recovery including excreta, residues, and cage wash ([6]; total radioactivity, 120 h after oral dosing): 97.3%; administered radioactivity excreted within 24 h [6, 21]: approximately 86%; radioactivity excreted within 120 h (urine + feces) [6, 21]: 92.4 % of dose; radioactivity excreted in urine ([6]; total radioactivity, oral 2.5 mg/kg, intact rats, 2.5 mg/kg): 48.6 % of dose; radioactivity excreted in feces ([6]; total radioactivity, oral 2.5 mg/kg, intact rats, listed as [14C]-nifurtimox, 2.5 mg/kg): 43.8 % of dose; radioactivity excreted in feces [6, 22]: 43.8 % of dose and 49 % of dose; radioactivity excreted in urine [6, 22]: 48.6 % of dose and 44 % of dose
